The text below walks through data of US20130184280A1, “SUBSTITUTED THIAZOLES AS VEGFR2 KINASE INHIBITORS” (TELIK, INC., priority 2011, published 2013).

Some results are limits rather than exact numbers.

Data set [1] has as its target T1, VEGFR2 kinase (Homo sapiens, UniProt P35968).
T1 construct: purchased InVitrogen
Briefly: In Vitro VEGFR2 Kinase Assay. The conditions noted are these: FP; CSKtide substrate, 60 minutes at room temperature. Format: biochemical. The procedure:
In Vitro VEGFR2 Kinase Assay
50 ng/well VEGFR2 kinase (from InVitrogen) was mixed in buffer (14.5 μL/well). To this were added, 0.5 μL of the compound of this invention at a concentration of 2.5% in DMSO. After incubatiuon for 5 minutes at room temperature, 5 μL of substrate (CSKtide, 400 nM) and 8 μL ATP were added. The mixture was incubated for 60 minutes at room temperature and 60 uL of binding reagent (beads) was added. After incubation overnight at room temperature, the plate was read with a LJL plate reader.

Data set [2] in a line: In Vitro Cytotoxicity Assay HCT116 (CellTiter-Glo). Format: cell-based. The conditions noted are these: human, HCT116 colon carcinoma cells, cultured three days. How it is done: (§1) The cell lines HL60 (human promyelocytic leukemia) and HCT116 (human colon carcinoma) were obtained from the American Type Culture Collection, Manassas, Va., U.S.A. All products were used in accordance with manufacturer's directions. The cytotoxicity assays were conducted in triplicate, in each case with solvent control.
(§2) Log-phase cells were trypsinized, collected by centrifugation, and resuspended in a small volume of fresh medium, and the density of viable cells was determined following Trypan Blue staining Cells were diluted in fresh media, the test compounds (concentrations between 0.1 μM and 200 μM, dissolved in DMSO, 50 μL) added immediately after dilution to achieve a final DMSO concentration of 0.5%, then the suspensions added at 150 μL/well to 96-well plates, and incubated overnight to allow attachment in the case of adherent cells. The cells were cultured for three days (about three doubling times). The cells were then collected by centrifugation, and 100 μL of the culture supernatant was replaced by the CellTiter-Glo reagent. After incubation for 15 minutes at room temperature, the plate was read with a luminometer. […] The table gives cytotoxicity IC50s in μm.
(ATP-based viability assays read luminescence as a measure of living cells.)

The nature of data set [3]: In Vitro Cytotoxicity Assay HL60 (CellTiter-Glo). Format: cell-based. The settings on record: human, HL60 promyelocytic leukemia cells; HL 60 cells, cultured three days. How it is done: as §1, §2
The test system of data set [4] is HCT116 (human colon carcinoma). Briefly: In Vivo HCT116 Xenograft Model. The settings on record: athymic nu/nu mice.
[5] abbreviates: 30 mg/Kg intraperitoneally once/day on days 1-5 and 8-12, measured 2 days after last treatment.

T1 sequence (P35968 20-1356): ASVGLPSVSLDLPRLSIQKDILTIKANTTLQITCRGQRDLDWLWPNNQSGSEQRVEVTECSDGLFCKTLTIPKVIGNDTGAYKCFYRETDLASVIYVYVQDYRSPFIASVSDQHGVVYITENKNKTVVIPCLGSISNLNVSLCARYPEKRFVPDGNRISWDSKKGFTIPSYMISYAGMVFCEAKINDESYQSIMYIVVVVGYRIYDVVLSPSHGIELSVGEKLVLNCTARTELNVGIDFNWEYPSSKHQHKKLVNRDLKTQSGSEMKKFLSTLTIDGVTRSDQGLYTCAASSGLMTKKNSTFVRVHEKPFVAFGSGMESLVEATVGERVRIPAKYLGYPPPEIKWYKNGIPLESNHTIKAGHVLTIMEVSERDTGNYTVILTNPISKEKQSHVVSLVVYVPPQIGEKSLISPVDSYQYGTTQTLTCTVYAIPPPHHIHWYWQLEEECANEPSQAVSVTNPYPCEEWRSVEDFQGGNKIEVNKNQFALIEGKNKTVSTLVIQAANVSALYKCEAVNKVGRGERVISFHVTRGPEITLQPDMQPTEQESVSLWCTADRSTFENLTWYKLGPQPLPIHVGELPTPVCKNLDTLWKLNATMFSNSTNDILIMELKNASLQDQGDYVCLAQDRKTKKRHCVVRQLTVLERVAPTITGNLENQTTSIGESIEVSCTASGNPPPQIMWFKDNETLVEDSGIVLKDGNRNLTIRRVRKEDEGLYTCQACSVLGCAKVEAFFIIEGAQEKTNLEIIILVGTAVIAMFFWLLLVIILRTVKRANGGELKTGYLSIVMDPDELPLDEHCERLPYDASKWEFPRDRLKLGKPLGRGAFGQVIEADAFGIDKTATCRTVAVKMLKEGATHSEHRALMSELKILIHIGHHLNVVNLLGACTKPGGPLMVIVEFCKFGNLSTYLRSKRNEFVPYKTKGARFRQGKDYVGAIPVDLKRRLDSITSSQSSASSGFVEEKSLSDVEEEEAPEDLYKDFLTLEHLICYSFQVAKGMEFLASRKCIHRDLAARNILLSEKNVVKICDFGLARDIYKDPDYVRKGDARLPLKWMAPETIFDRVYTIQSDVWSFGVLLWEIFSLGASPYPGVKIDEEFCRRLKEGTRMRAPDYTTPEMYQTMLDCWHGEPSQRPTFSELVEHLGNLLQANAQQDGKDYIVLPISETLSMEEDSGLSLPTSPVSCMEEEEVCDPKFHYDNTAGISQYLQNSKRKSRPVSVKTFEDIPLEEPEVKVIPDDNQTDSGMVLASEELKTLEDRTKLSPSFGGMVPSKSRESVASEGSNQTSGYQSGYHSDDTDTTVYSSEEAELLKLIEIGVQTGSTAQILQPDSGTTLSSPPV

`Nc1ncncc1-c1nc(-c2cccc(NC(=O)Nc3cccc(CN4CCOCC4)c3)c2)cs1` [Compound 46] displayed an IC50 in data set [1] of 20 nM. Moreover, the IC50 at 3 days amounted to 8000 nM in data set [2] and 700 nM in data set [3]. Moreover, the Tumor growth inhibition entry is recorded as “showed inhibition of tumor growth compared to vehicle” in data set [4] (setting [5]) and “showed inhibition of tumor growth when administered orally” in data set [4] (administered orally).

Compound `Cc1cccc(NC(=O)Nc2cccc(-c3csc(-c4cncnc4N)n3)c2)c1` [Compound 17, 1-(3-(2-(4-aminopyrimidin-5-yl)thiazol-4-yl)phenyl)-3-m-tolylurea] came in with a half-inhibitory concentration (IC50) in data set [1] of 10 nM. The concentration for half-maximal inhibition (IC50) at 3 days in data set [2] turned out to be 1000 nM; in data set [3] it was 300 nM. Further, the Tumor growth inhibition result in data set [4] (setting [5]) is “showed inhibition of tumor growth compared to vehicle”.

Turning to `Nc1ncncc1-c1nc(-c2cccc(NC(=O)c3ccccc3)c2)cs1` [Compound 3], half-maximal inhibition in data set [1] (IC50) was put at 20 nM. The results for the IC50 at 3 days in data set [2] and in data set [3] were 20000 nM and 3000 nM, respectively. Also, the Tumor growth inhibition result in data set [4] (setting [5]) is “showed inhibition of tumor growth compared to vehicle”.

Turning to `Cc1ccc(NC(=O)Nc2cccc(-c3csc(-c4cncnc4N)n3)c2)cc1C` [Compound 27], 40 nM corresponded to half-maximal inhibition in data set [1] (IC50). The IC50 at 3 days came out at 2000 nM in data set [2] and 4000 nM in data set [3].

As to `CCc1ccc(NC(=O)Nc2cccc(-c3csc(-c4cncnc4N)n3)c2)cc1` [Compound 28], in data set [1], the concentration for half-maximal inhibition (IC50) turned out to be 70 nM. The half-inhibitory concentration (IC50) at 3 days is 8000 nM in data set [2] and 1000 nM in data set [3].

Regarding `Nc1ncncc1-c1nc(-c2cccc(NC(=O)NCc3ccccc3)c2)cs1` [Compound 58], 60 nM corresponded to half-maximal inhibition in data set [1] (IC50). In addition, the half-inhibitory concentration (IC50) at 3 days in data set [2] stood at 4000 nM; in data set [3] it was 400 nM.

In data set [1], `Nc1ncncc1-c1nc(-c2cccc(NC(=O)Nc3ccc(Cl)c(C(F)(F)F)c3)c2)cs1` [Compound 22] came in with a 50% inhibitory concentration (IC50) of 20 nM. The half-inhibitory concentration (IC50) at 3 days in data set [2] and in data set [3] was 1000 nM each time.

The compound `Nc1ncncc1-c1nc(-c2cccc(NC(=O)c3ccc(F)c(F)c3)c2)cs1` [Compound 9] returned an IC50 in data set [1] of 300 nM. Moreover, the results for the 50% inhibitory concentration (IC50) at 3 days in data set [2] and in data set [3] were 50000 nM and 20000 nM, respectively.

As for `Cc1ccccc1NC(=O)Nc1cccc(-c2csc(-c3cncnc3N)n2)c1` [Compound 19], inhibition in data set [1] was half-maximal at 70 nM (IC50). The values for the IC50 at 3 days in data set [2] and in data set [3] were above 50000 nM and 900 nM, respectively.

Turning to `Nc1ncncc1-c1nc(-c2cccc(NC(=O)NC3CCCCC3)c2)cs1` [Compound 65], the IC50 in data set [1] was 40 nM. For the same compound, the IC50 at 3 days in data set [2] came out at 8000 nM; in data set [3], 1000 nM.

Turning to `Nc1ncncc1-c1nc(-c2cccc(NC(=O)c3cccc(CNCCO)c3)c2)cs1` [Compound 56], half-maximal inhibition in data set [1] (IC50) was put at 100 nM. Further, the half-maximal inhibitory concentration (IC50) at 3 days in data set [2] was 3000 nM; in data set [3], 2000 nM.

As a reminder, the IC50 is the concentration at which inhibition is half-maximal. A low value points to greater potency in that assay.
